Test results as given in PubChem BioAssay AID330 (DTP/NCI, 2004).
“And” between values parts separate entries of the source, which are not always exact repeats. Equal values may be shown once. Inconclusive results and toxic doses are left out. Peptide text beside a SMILES is read from it. * marks the point of attachment. Cbz = O=C(OCc1ccccc1)*

Test system: P388 leukemia ip, CD2F1 mice, survival T/C
Test: NCI In Vivo Anticancer Drug Screen. Data for tumor model P388 Leukemia (intraperitoneal) in CD2F1 (CDF1) mice
Details: endpoint: median survival time, higher = longer survival
Summary of the method: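 Mice carrying the transplanted tumor received test compound or vehicle. Survival was recorded in each group, and the value is the treated-group measurement divided by that of the vehicle-treated control group.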

[1] = dose: 50.0 mg/kg/injection, schedule: Q01DX005 (ip), vehicle: Klucel (hydroxypropylcellulose) (HPC)
[2] = dose: 100.0 mg/kg/injection, schedule: Q01DX005 (ip), vehicle: Klucel (hydroxypropylcellulose) (HPC)
[3] = dose: 200.0 mg/kg/injection, schedule: Q01DX005 (ip), vehicle: Klucel (hydroxypropylcellulose) (HPC)
[4] = dose: 100.0 mg/kg/injection, schedule: Q04DX003 (ip), vehicle: saline with Tween-80
[5] = dose: 200.0 mg/kg/injection, schedule: Q04DX003 (ip), vehicle: saline with Tween-80
[6] = dose: 400.0 mg/kg/injection, schedule: Q04DX003 (ip), vehicle: saline with Tween-80
[7] = dose: 50.0 mg/kg/injection, schedule: Q01DX009 (ip), vehicle: saline with Tween-80
[8] = dose: 100.0 mg/kg/injection, schedule: Q01DX009 (ip), vehicle: saline with Tween-80
[9] = dose: 200.0 mg/kg/injection, schedule: Q01DX009 (ip), vehicle: saline with Tween-80
[10] = dose: 60.0 mg/kg/injection, schedule: Q01DX005 (ip), vehicle: saline with Tween-80
[11] = dose: 120.0 mg/kg/injection, schedule: Q01DX005 (ip), vehicle: saline with Tween-80
[12] = dose: 240.0 mg/kg/injection, schedule: Q01DX005 (ip), vehicle: saline with Tween-80
[13] = dose: 50.0 mg/kg/injection, schedule: Q01DX005 (ip), vehicle: saline with Tween-80
[14] = dose: 100.0 mg/kg/injection, schedule: Q01DX005 (ip), vehicle: saline with Tween-80
[15] = dose: 200.0 mg/kg/injection, schedule: Q01DX005 (ip), vehicle: saline with Tween-80
[16] = dose: 50.0 mg/kg/injection, schedule: Q01DX009 (ip), vehicle: saline
[17] = dose: 100.0 mg/kg/injection, schedule: Q01DX009 (ip), vehicle: saline
[18] = dose: 200.0 mg/kg/injection, schedule: Q01DX009 (ip), vehicle: saline
[19] = dose: 100.0 mg/kg/injection, schedule: Q04DX002 (ip), vehicle: saline with Tween-80
[20] = dose: 200.0 mg/kg/injection, schedule: Q04DX002 (ip), vehicle: saline with Tween-80

CC(C)C(NSC(=O)C1CCCN1Sc1ccc([N+](=O)[O-])cc1[N+](=O)[O-])C(=O)OCc1ccccc1 (configuration not stated)
T/C (dose: 25.0 mg/kg/injection, schedule: Q01DX005 (ip), vehicle: Klucel (hydroxypropylcellulose) (HPC)): 92 % of control | T/C [1]: 94 % of control | T/C [2]: 86 % of control and 93 % of control | T/C [3]: 93 % of control

FC(F)(F)c1nc(Cc2ccccc2)c(C(F)(F)F)o1
T/C [4]: 93 % of control | T/C [5]: 93 % of control | T/C [6]: 95 % of control

CC(O)C(NC(=O)C(Cc1ccc(O)cc1)NC(=O)OCc1ccccc1)C(=O)O (stereo not drawn) (Cbz-Tyr-Thr-OH; configuration not given here)
T/C (dose: 50.0 mg/kg/injection, schedule: Q01DX005 (ip), vehicle: suspension in saline): 105 % of control | T/C (dose: 100.0 mg/kg/injection, schedule: Q01DX005 (ip), vehicle: suspension in saline): 96 % of control | T/C (dose: 200.0 mg/kg/injection, schedule: Q01DX005 (ip), vehicle: suspension in saline): 111 % of control

CNC(=O)N(CCO)/N=C\c1ccc([N+](=O)[O-])o1
T/C [1]: 99 % of control | T/C [2]: 97 % of control | T/C [3]: 103 % of control

CC(=O)Oc1ccc(CC(=O)O)cc1
T/C (dose: 25.0 mg/kg/injection, schedule: Q01DX009 (ip), vehicle: saline with Tween-80): 107 % of control | T/C [7]: 103 % of control | T/C [8]: 103 % of control | T/C [9]: 107 % of control

COc1ccc2c(c1)CCc1cn[nH]c1-2
T/C [1]: 93 % of control | T/C [2]: 92 % of control | T/C [3]: 93 % of control

N#Cc1ccc(=O)[nH]c1O
T/C [7]: 99 % of control | T/C [8]: 100 % of control

CCc1cccc(CC)c1N1CC(C(=O)O)CC1=O (configuration not stated)
T/C (dose: 60.0 mg/kg/injection, schedule: Q01DX005 (ip), vehicle: Klucel (hydroxypropylcellulose) (HPC)): 107 % of control | T/C (dose: 120.0 mg/kg/injection, schedule: Q01DX005 (ip), vehicle: Klucel (hydroxypropylcellulose) (HPC)): 101 % of control | T/C (dose: 240.0 mg/kg/injection, schedule: Q01DX005 (ip), vehicle: Klucel (hydroxypropylcellulose) (HPC)): 101 % of control

C=C1OC(=O)C(N)=C1C(C)=O
T/C [10]: 99 % of control | T/C [11]: 97 % of control | T/C [12]: 95 % of control

C[C@@H](O)[C@@H]1NC(=O)[C@H]([C@@H](C)O)NC1=O
T/C (dose: 50.0 mg/kg/injection, schedule: Q01DX005 (ip), vehicle: saline): 99 % of control | T/C (dose: 100.0 mg/kg/injection, schedule: Q01DX005 (ip), vehicle: saline): 99 % of control | T/C (dose: 200.0 mg/kg/injection, schedule: Q01DX005 (ip), vehicle: saline): 99 % of control

COC(=O)C(CSCc1ccccc1)NC(=O)CCNC(C)=O (configuration not stated)
T/C (dose: 12.5 mg/kg/injection, schedule: Q01DX009 (ip), vehicle: distilled water + Tween-80): 97 % of control | T/C (dose: 25.0 mg/kg/injection, schedule: Q01DX009 (ip), vehicle: distilled water + Tween-80): 100 % of control | T/C (dose: 50.0 mg/kg/injection, schedule: Q01DX009 (ip), vehicle: distilled water + Tween-80): 91 % of control | T/C (dose: 100.0 mg/kg/injection, schedule: Q01DX009 (ip), vehicle: distilled water + Tween-80): 92 % of control | T/C (dose: 200.0 mg/kg/injection, schedule: Q01DX009 (ip), vehicle: distilled water + Tween-80): 91 % of control

NS(=O)(=O)c1ccc(Nc2c3ccccc3nc3ncccc23)cc1
T/C (dose: 7.5 mg/kg/injection, schedule: Q01DX005 (ip), vehicle: saline with Tween-80): 92 % of control | T/C (dose: 15.0 mg/kg/injection, schedule: Q01DX005 (ip), vehicle: saline with Tween-80): 91 % of control | T/C (dose: 30.0 mg/kg/injection, schedule: Q01DX005 (ip), vehicle: saline with Tween-80): 92 % of control

C[C@@H]1CCC[C@H]1CC(N)C(=O)O (some centres not stated)
T/C [13]: 99 % of control | T/C [14]: 95 % of control | T/C [15]: 91 % of control

CCOc1nc(N)c(C(=O)c2ccc(O)c(O)c2)s1
T/C [1]: 111 % of control | T/C [2]: 109 % of control | T/C [3]: 87 % of control

Nc1nc2[nH]c(=O)[nH]c2c(=O)[nH]1
T/C [13]: 94 % of control | T/C [14]: 93 % of control | T/C [15]: 91 % of control

CN(C)Cc1cocc(CN(C)C)c1=O
T/C [16]: 100 % of control | T/C [17]: 98 % of control | T/C [18]: 103 % of control

C[n+]1c(-c2cccc(OCCOCCOc3cccc(-c4c5cc(N)ccc5c5ccc(N)cc5[n+]4C)c3)c2)c2cc(N)ccc2c2ccc(N)cc21
T/C (dose: 0.19 mg/kg/injection, schedule: Q01DX009 (ip), vehicle: water): 114 % of control | T/C (dose: 0.39 mg/kg/injection, schedule: Q01DX009 (ip), vehicle: water): 114 % of control | T/C (dose: 1.56 mg/kg/injection, schedule: Q01DX009 (ip), vehicle: water): 170 % of control | T/C (dose: 3.13 mg/kg/injection, schedule: Q01DX009 (ip), vehicle: water): 172 % of control | T/C (dose: 6.25 mg/kg/injection, schedule: Q01DX009 (ip), vehicle: water): 102 % of control

CCOC(OCC)c1ccc(C)cc1
T/C [4]: 103 % of control | T/C [5]: 108 % of control | T/C [6]: 97 % of control

CN(C)C1C(O)C2Oc3c(cc(O)c4c3C(=O)c3cc5c(c(O)c3C4=O)C(NCCO)CC(C)(O)C5)C(C)(O2)C1O (configuration not stated)
T/C (dose: 6.25 mg/kg/injection, schedule: Q01DX009 (ip), vehicle: other): 104 % of control | T/C (dose: 12.5 mg/kg/injection, schedule: Q01DX009 (ip), vehicle: other): 108 % of control | T/C (dose: 25.0 mg/kg/injection, schedule: Q01DX009 (ip), vehicle: other): 123 % of control | T/C (dose: 50.0 mg/kg/injection, schedule: Q01DX009 (ip), vehicle: other): 157 % of control | T/C (dose: 100.0 mg/kg/injection, schedule: Q01DX009 (ip), vehicle: other): 157 % of control

O=C1c2cc3cc4ccccc4cc3cc2C(=O)c2c(O)ccc(O)c21
T/C (dose: 50.0 mg/kg/injection, schedule: Q04DX002 (ip), vehicle: saline with Tween-80): 90 % of control | T/C [19]: 91 % of control | T/C [20]: 99 % of control

C[C](C)(C)[Sn](=[O])[C](C)(C)C
T/C (dose: 6.25 mg/kg/injection, schedule: Q01DX009 (ip), vehicle: saline): 95 % of control | T/C (dose: 12.5 mg/kg/injection, schedule: Q01DX009 (ip), vehicle: saline): 97 % of control | T/C (dose: 25.0 mg/kg/injection, schedule: Q01DX009 (ip), vehicle: saline): 99 % of control

COC(OC)C(Sc1ccccc1-n1cccc1)c1ccccc1 (configuration not stated)
T/C (dose: 60.0 mg/kg/injection, schedule: Q01DX005 (ip), vehicle: saline): 105 % of control | T/C (dose: 120.0 mg/kg/injection, schedule: Q01DX005 (ip), vehicle: saline): 103 % of control | T/C (dose: 240.0 mg/kg/injection, schedule: Q01DX005 (ip), vehicle: saline): 108 % of control

O=C(N/N=C\c1ccc(O)cc1)C(=O)N/N=C\c1ccc(O)cc1
T/C [16]: 87 % of control | T/C [17]: 92 % of control | T/C [18]: 96 % of control

CCCCNCCC(O)c1cc2ccc(C(F)(F)F)cc2c2cc(C(F)(F)F)ccc12 (configuration not stated)
T/C [7]: 86 % of control | T/C [8]: 91 % of control

CC/C(=C(/CC)c1ccc(OC(=O)N(CCCl)CCCl)cc1)c1ccc(OC(=O)N(CCCl)CCCl)cc1
T/C [16]: 97 % of control | T/C [17]: 99 % of control | T/C [18]: 99 % of control

CN1CCCC(C(O)c2ccccc2)S1(=O)=O (configuration not stated)
T/C [7]: 96 % of control | T/C [8]: 96 % of control | T/C [9]: 101 % of control

CCOC(=O)c1c(-c2ccc3c(c2)OCO3)[nH][nH]c1=O
T/C (dose: 100.0 mg/kg/injection, schedule: Q04DX002 (ip), vehicle: saline): 101 % of control | T/C (dose: 200.0 mg/kg/injection, schedule: Q04DX002 (ip), vehicle: saline): 99 % of control

CC1=C(/C=C/C(C)=C/C=C/C(C)=C/C=C/C=C(C)/C=C/C=C(\C)C=O)C(C)(C)CCC1
T/C [10]: 101 % of control | T/C [11]: 92 % of control | T/C [12]: 94 % of control

CC1=C(C(=O)Nc2ccccc2)C(c2ccc(Cl)cc2Cl)C(C(=O)Nc2ccccc2)=C(C)N1
T/C [19]: 99 % of control | T/C [20]: 101 % of control | T/C (dose: 400.0 mg/kg/injection, schedule: Q04DX002 (ip), vehicle: saline with Tween-80): 92 % of control
